Assay results reported in US12391701B2, “Chromene-based compounds, methods and uses thereof” (University of Minho, priority 2019, dated 2025).
In brackets after ≈: the same amount, converted by molar mass.

What was measured:
[1] = Highest soluble concentration in C. elegans assay; assay type: physicochemical; conditions: C. elegans liquid culture medium (S-medium) with 1% DMSO, 20 °C, aqueous buffer, kinetic from dmso stock, read-out: highest soluble concentration possible
Protocol: The compounds were tested at several concentrations, up to the highest soluble concentration possible −150 μM (MC369, 75 μM) (FIG. 12). […] The rate of food consumption between days 3-5 was used as an indication for worm development, health and fertility and compared to 1% DMSO, (vehicle, not toxic).
In an embodiment, Bristol strain N2 (provided by the CGC, funded by the NIH Office of Research Infrastructure Programs—P40 OD010440) was used to test each compound's toxicity based on a food clearance assay using C. elegans. The assay was performed on 96-well plates in liquid culture (Voisine et al. 2007; Teixeira-Castro et al. 2015). Each well, with a final volume of 60 μL, comprised the following: approximately 20 worms in egg stage, OP50 bacteria to a final OD of 0.6-0.8 (595 nm) and each compound at the appropriate concentration. The worms were grown with continuous shaking at 180 rpm/20° C. (Shel lab Si series incubator) for 7 days and the absorbance (OD595) was measured daily on a microplate reader (Tecan Infinite M200). The effect of the compounds on C. elegans physiology was monitored by the rate at which the E. coli food suspension was consumed (FIG. 14). Age-synchronized worm eggs were obtained by “egg prep” as follows: adult worms were treated with an alkaline hypochlorite solution (20% bleach, 25% 1M NaOH) for 6 minutes, thereafter centrifuged and washed in M9 buffer twice. […]

[2] = test system: TNBC cell line MDA-MB-231; experiment: Orthotopic breast cancer xenograft in NSG mice; assay type: in vivo
Protocol: In an embodiment, the in vivo therapeutic efficacy of compound MC408 was analysed using the mouse model. […] MDA-MB-231 cells were injected into the mammary fat pad of NSG mice (n=6 or 7 per group). Treatment was administered 3 days post-implantation for one week. NT=Vehicle; Dose 1=3 mg/kg; Dose 2=10 mg/kg; Dose 3=50 mg/kg. *, p<0.05; **, p<0.01; ****, p<0.0001 (compared to NT group; two-way ANOVA post-hoc Tukey's test or unpaired t-test with Welch's correction).
In an embodiment, NSG (NOD Scid Gamma) female mice (3-6 months) were injected with a mixture of 0.6×10^6 MDA-MB-231 breast cancer cells and matrigel (ratio 1:1) in the mammary fat pad. Mice were randomly assigned to treatment groups (at least 6 mice/group), which was started 3 days post-implantation using 3 independent doses of compound MC408 (dose 1=3 mg/kg, dose 2=10 mg/kg, and dose 3=50 mg/kg) or vehicle (PBS 1× and Matrigel, ratio 1:1), and was administered daily for 7 days. Mice were maintained under standard laboratory conditions. Animal tumor size (calculated by measuring the two largest sides and applying the formula: v=3.14×L1×L1×L2/6; being L1 the largest side, and L2 the other one) was measured and recorded regularly. At day 47 post-implantation, animals were sacrificed and tumors were excised. All animal procedures were conducted in accordance with the guidelines for the care and use of laboratory animals (European Directive 2010/63/EU).

[3] = test system: C57BI/6 mice; experiment: Toxicity in C57BI/6 mice, 1st trial; assay type: in vivo
Protocol: In an embodiment, the safety profiles of the compounds were evaluated in rodents. […] FIG. 13A is a schematic representation of the experiment timeline. 5-month old female and male animals were used (n=3/group/gender) and injected either with MC408 3 mg/Kg or vehicle (saline, Tween80 and methylcellulose) (i.p.) daily for 7 days. A battery of welfare tests was performed daily. […] The activity was measured in a viewing jar and the number of vertical movements were counted for 5 minutes. […] The activity was recorded in an open arena labelled with squares and the number of squares were counted while the animals were freely exploring for 1 minute. […] In FIGS. 13G and H, water and food intake were analysed respectively. Each day, […] of food and 200 mL of water were placed in each cage. […] Data is presented as mean±SE.
In an embodiment, C57/BI6 female and male mice (n=3/group/gender) were intraperitoneally injected with MC408 (3 mg/Kg) or vehicle (saline, Tween80 and methylcellulose) daily, for 7 days to determine toxicity of the compounds in mice model. A battery of tests to assess mice welfare were performed daily. Immediately after the first drug administration, animals were videotaped and the immediate effects of MC408 were recorded. The number of vertical movements and the immobility time were recorded. Water and food intake were evaluated during the 7 days of the experiment, by adding a fixed amount of food and water in the animal's home cage in the 1st day and measuring the remaining amount at day 7. Body weight was assessed every day in a dynamic mouse scale. Horizontal and vertical activity was analysed to evaluate animals' intrinsic exploratory behavior; these were measured in an open arena with labelled squares for 1 minute and in a viewing jar for 5 minutes, respectively. Furthermore, the number of bolus faecalis were also counted while animals were performing the daily behavior assessment protocols, as a measure of anxiety. A battery of tests more related to animal welfare was applied by the experimenter, including measurements of: (i) body position and curvature; (ii) spontaneous activity; (iii) respiratory rate; (iv) eyelid opening and reflexes; (v) skin picking to analyse dehydration; (vi) grooming; (vii) fur erection; (viii) tremors; (ix) limb clasping and (x) reaction to transfer. At day 7, the animals were euthanized. All animals were deeply anesthetized (ketamine hydrochloride (150 mg/kg) and medetomidine (0.3 mg/kg)) and transcardially perfused with a saline solution (NaCl 0.9% (wt/v)). Blood was collected from the cava vein, centrifuged for 10 minutes at 13.000 rpm and the plasma was transferred to a new tube and stored at −80° C. until further processing for enzymatic liver function measurements using standard techniques. The organs (kidney, intestine, stomach, brain, liver, ovary/testis) were harvested and placed in tubes containing 4% paraformaldehyde and further processed for paraffin embedding and pathology analysis.

[4] = 3, 10, 50 mg/kg daily for 7 days, dose-dependent

| Compound | solubility [1] | tumor volume [2, 4] | tumor weight [2, 4] | reduction of tumor volume comparing to the vehicle group ([2]; dose of 50 mg/kg) | reduction of tumor weight comparing to the vehicle group ([2]; dose of 50 mg/kg) | weight loss and other side effects ([2]; tested treatment regimen, whole experiment) | exploratory activities (vertical and horizontal) ([3]; 3 mg/Kg i.p. daily for 7 days) | number of bolus faecalis (indirect measure of anxiety) ([3]; 3 mg/Kg i.p. daily for 7 days) | body weight ([3]; 3 mg/Kg i.p. daily for 7 days, 1st trial) | water and food intake ([3]; 3 mg/Kg i.p. daily, measured at day 7) | battery of welfare tests ([3]; 3 mg/Kg i.p. daily, vs vehicle) | immobility time and vertical movement (REARS) immediately after first injection ([3]; 3 mg/Kg i.p., 10 min, vs vehicle) | serum AST and ALT (enzymatic liver function) ([3]; day 7, females and males, vs vehicle) |
| --- | --- | --- | --- | --- | --- | --- | --- | --- | --- | --- | --- | --- | --- |
| COc1cccc2c1Oc1nc(-c3ccccc3F)[nH]c1C2C1c2cccc(OC)c2Oc2nc(-c3ccccc3F)[nH]c21 (stereo not shown) [MC369, 2,2′-bis(2-fluorophenyl)-5,5′-dimethoxy-1,1,9,9′-tetrahydro-9,9′-bichromeno[2,3-]imidazoles] | 75 µM (≈ 44.3 µg/mL) |  |  |  |  |  |  |  |  |  |  |  |  |
| COc1cccc2c1Oc1nc(-c3ccc(Br)cc3)[nH]c1C2 [MC408, 2-(4-bromophenyl)-5-methoxy-3,9-dihydrochromeno[2,3-d]imidazoles] |  | significantly decreased | significantly decreased | more than 40% | more than 40% | no weight loss nor other side effects | No differences were found | no differences were observed | no differences were found | no differences were found | no impact | No differences were found | No statistical differences |
